Data on two compounds can be found in patent publication US20260167677A1, “ANTI-ADAM10 ANTIBODIES AND USES IN TREATMENT OF CANCER” (Memorial Sloan Kettering Cancer Center, priority 2022, published 2026).

One assay addresses T1, human ADAM10 ECD (Homo sapiens, UniProt O14672).
T1 construct: Human ADAM10 ECD (20-650); Fc-tag (human); made in house; host or cells: baculovirus-infected Hi5 insect cells
T1 sequence (O14672 20-650): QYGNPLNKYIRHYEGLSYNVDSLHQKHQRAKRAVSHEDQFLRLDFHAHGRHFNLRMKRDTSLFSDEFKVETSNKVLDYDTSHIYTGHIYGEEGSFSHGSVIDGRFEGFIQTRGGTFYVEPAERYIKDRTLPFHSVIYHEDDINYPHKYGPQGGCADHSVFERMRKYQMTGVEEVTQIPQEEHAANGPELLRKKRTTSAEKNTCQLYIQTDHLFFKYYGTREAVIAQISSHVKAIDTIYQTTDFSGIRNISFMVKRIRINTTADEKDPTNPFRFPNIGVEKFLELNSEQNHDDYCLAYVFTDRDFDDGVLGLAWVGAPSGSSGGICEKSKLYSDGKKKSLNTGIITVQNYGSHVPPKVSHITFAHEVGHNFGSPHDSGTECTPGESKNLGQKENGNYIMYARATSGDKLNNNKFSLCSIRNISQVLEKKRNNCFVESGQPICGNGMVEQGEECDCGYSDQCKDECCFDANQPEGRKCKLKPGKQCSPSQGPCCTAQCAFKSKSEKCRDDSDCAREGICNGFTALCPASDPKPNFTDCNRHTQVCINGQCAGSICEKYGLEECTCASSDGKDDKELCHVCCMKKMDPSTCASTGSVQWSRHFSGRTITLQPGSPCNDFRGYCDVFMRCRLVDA
Briefly: Fluorogenic peptide cleavage assay, human ADAM10 ECD. Format: biochemical. The settings on record: 1:1 molar ratio; human or bovine ADAM10 ECD not told apart. The procedure:
ADAM10 ECD-antibody or ADAM10 ECD-inhibitor (broad spectrum metalloprotease inhibitor GM6001) complexes were formed at a 1:1 molar ratio prior to the assay. The assay was carried out by mixing 50 μM of a fluorogenic peptide substrate Mca-PLAQAV-Dpa with ADAM10-antibody/inhibitor complexes at 37° C., and monitoring the progress of the enzymatic reaction by fluorescence emission (excitation 320 nm and emission 405 nm) over a time course of 1 hour using a SpectraMax M5. ADAM10 ECD (bovine or human) alone was used as positive control. The substrate peptide was derived from TNFalpha and contains a highly fluorescent 7-methoxycoumarin group and a quencher group, 2,4-dinitrophenyl. ADAM10 cleaves the amide bond between the fluorescent and the quencher group causing an increase in fluorescence (Seegar et al., 2017; Black & Becherer, 1998).

For assay [1], the system named is xenografted COLO205 cells. Briefly: Mouse model of CRC using xenografted COLO205 cells. Format: in vivo. The following applies: first study; 1H5 30 mg/kg i.p. biweekly, irinotecan 20 mg/kg i.p. once a week. How it is done: For the mouse model, COLO205 cells were grown in monolayer culture, harvested by trypsinization, and implanted subcutaneously into the right flank of 6- to 8-week-old female athymic nude mice. Approximately 10 million cells were injected per mouse. Mice were randomized into 4 groups (each n=4).
Tumor volume was determined by external caliper and calculated by the modified ellipsoidal formula: V=½(Length×Width^2). Antitumor efficacy was calculated as (1-dT/dC)[…], where dT is the final tumor volume minus the starting tumor volume from the treatment group, and dC is the final tumor volume minus the starting tumor volume of the control group (Rios-Doria et al., 2015). Error bars were calculated as SEM. The mouse body weight and general health were monitored daily.
In a second study, 1H5 at two different doses was used in the mouse model. For the mouse model, approximately five million cells were implanted (subcutaneous with Matrigel) into 6- to 8-week-old female athymic nude mice. Mice were randomized into 3 groups (each n=5).

On to `CNC(=O)[C@H](Cc1c[nH]c2ccccc12)NC(=O)[C@@H](CC(=O)NO)CC(C)C` [broad-spectrum inhibitor, GM6001, reference compound], for which the “effect on substrate cleavage” value at human ADAM10 ECD is reported as “marginal inhibition”.
Compound `CCc1c2c(nc3ccc(OC(=O)N4CCC(N5CCCCC5)CC4)cc13)-c1cc3c(c(=O)n1C2)COC(=O)[C@]3(O)CC` [Irinotecan, irinotecan, reference compound] came in with a tumor growth inhibition in assay [1] of 48%.
